Measurements published in patent US9341616B2, “Sweet taste receptor chimeric proteins and use thereof” (AJINOMOTO CO., INC., priority 2014, dated 2016).
Residues, ends and D or L forms follow the SMILES beside them.

The compounds below were run against h-mT1R2-481/T1R3mosaicC (UniProt Q8TE23+Q925D8, A537S/A558R/A564V/A568V/A570T/A588V/A645S/A649T/A658V/A698V/A702T/A782V/A793V/A807V/C582S/C678S/D172E/D176A/D217E/E221Q/E530V/E534N/E542M/E548N/E725V/F525Y/F541I/F612A/F622V/F665L/F695L/G696N/G701T/H484Y/H528R/H728R/I481V/I486P/I490V/I510L/I518V/I595M/I617V/I643V/I645L/I692L/I695G/I706V/I740A/I803L/K504M/K555R/K565R/K626T/K714N/K818R/K827G/L521P/L560F/L571I/L578I/L610P/L631F/L636F/L639V/L684P/L688V/L702I/L734M/L735F/L800F/L823M/L825Q/M492I/M616G/M644L/M682V/M690V/M744T/M748V/N203E/N231A/N540G/N541S/N547G/N675D/N721H/P545F/P561R/P564S/P638T/P824S/Q195T/Q536L/Q546K/Q550E/Q555R/Q611L/Q676H/Q757R/Q795R/Q831P/R173L/R498S/R632Q/R667S/S168G/S205G/S228A/S501P/S547N/S550A/S576L/S595F/S610P/S628F/S635P/S637R/S663R/S670G/S679G/S681F/S703N/S717H/S727G/S784D/S804G/T199E/T529S/T542A/T549I/T609V/T629S/T642S/T663I/T694M/T705I/T706G/T716I/T813A/V197A/V198A/V508I/V512P/V557A/V573A/V584A/V585L/V613L/V617M/V673M/V687A/V691A/V694A/V718L/V718M/V723A/V729T/V738A/V741L/V774I/V791M/V805L/V812A/V821L/W599R/W676R/W824R/Y533F/Y615F/Y671F/Y680C/Y769S/Y783H/Y794L). Settings: Table 6; genes h-mT481/T1R3mC (h-mT1R2-481, T1R3mC); HEK293E cells.
h-mT1R2-481/T1R3mosaicC, sequence (Q8TE23 with tags, fused parts or gaps with the stated changes limits assumed): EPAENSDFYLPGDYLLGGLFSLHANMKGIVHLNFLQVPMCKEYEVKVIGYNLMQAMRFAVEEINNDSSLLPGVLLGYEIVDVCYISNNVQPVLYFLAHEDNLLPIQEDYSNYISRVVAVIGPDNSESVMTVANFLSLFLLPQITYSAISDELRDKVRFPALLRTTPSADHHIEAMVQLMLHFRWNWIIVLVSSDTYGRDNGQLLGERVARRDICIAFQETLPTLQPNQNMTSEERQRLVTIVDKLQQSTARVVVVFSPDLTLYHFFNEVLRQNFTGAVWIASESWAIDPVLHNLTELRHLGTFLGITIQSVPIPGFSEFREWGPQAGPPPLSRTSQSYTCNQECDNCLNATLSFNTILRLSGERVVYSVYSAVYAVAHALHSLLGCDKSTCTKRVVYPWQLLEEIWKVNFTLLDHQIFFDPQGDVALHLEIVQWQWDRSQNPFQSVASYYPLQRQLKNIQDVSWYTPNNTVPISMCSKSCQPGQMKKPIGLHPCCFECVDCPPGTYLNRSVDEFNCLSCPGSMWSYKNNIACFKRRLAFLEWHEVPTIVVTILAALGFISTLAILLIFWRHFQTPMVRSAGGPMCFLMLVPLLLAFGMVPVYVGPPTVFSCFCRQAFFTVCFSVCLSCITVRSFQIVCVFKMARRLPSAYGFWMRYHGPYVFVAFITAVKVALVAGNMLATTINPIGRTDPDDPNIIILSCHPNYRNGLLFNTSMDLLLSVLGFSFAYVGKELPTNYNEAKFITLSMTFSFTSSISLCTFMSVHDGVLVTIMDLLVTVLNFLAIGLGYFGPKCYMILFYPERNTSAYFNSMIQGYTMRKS
h-mT1R2-481/T1R3mosaicC, sequence (Q925D8 with tags, fused parts or gaps with the stated changes limits assumed): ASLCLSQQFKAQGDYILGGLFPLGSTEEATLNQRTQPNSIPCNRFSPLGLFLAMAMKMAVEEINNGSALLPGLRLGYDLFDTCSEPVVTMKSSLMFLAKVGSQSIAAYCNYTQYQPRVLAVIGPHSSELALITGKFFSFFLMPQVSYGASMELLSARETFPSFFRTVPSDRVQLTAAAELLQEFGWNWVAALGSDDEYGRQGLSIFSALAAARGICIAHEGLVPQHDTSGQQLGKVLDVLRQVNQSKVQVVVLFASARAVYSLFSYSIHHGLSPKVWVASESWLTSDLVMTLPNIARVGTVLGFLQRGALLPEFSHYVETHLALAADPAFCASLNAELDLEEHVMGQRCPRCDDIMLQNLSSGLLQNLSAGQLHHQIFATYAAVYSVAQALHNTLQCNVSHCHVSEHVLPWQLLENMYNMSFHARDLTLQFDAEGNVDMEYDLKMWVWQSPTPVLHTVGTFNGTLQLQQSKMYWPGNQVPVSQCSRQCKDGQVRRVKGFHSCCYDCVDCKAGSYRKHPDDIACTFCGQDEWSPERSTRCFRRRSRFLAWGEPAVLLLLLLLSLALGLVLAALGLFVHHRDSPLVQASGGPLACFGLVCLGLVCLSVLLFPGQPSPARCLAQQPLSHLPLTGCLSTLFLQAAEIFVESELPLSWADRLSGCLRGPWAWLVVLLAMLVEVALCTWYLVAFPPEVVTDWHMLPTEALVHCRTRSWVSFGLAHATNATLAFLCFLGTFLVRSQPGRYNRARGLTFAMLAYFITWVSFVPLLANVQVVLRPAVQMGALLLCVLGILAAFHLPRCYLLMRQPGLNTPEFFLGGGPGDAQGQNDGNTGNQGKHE
Method: The HEK293E cells maintained by using the DMEM/Ham's F-12 medium (Nakarai Tesque) containing 10% fetal bovine serum ([…]) and 1% Pen Strep (GIBCO) were washed with D-PBS(−) (Nakarai Tesque), and collected from the flask by using 0.25% Trypsin EDTA (GIBCO). The cells were centrifuged (1,200 rpm, 3 minutes), and after the supernatant was removed, suspended in 5% FBS DMEM/Ham's F-12 at a density of 0.75×10^7 cell/ml. This suspension (10 ml) was put into a […] (IWAKI), and culture was performed overnight (37° C., 5% CO2). On the next day, the medium was exchanged with Opti-MEM (30 ml, Invitrogen, Life Technologies), a sweet taste receptor gene mixture (Gα15-trans48LD gene, various kinds of T1R2 chimeric genes, and various kinds of T1R3 chimeric genes, 63.8 μg in total) prepared by using Opti-MEM and Lipofectamin 2000 (Invitrogen, Life Technologies) was slowly added to the cell suspension, and incubation was performed (37° C., 5% CO2) for 6 hours to attain gene transfer.
After the gene transfer, the cells were washed with D-PBS(−), then removed from the flask by using 0.25% Trypsin EDTA (GIBCO), and collected. After the cell number was counted, the cells were suspended in the 5% FBS DMEM medium (2.78 mM glucose, GIBCO) at a density of 0.5×10^6 cell/ml. This cell suspension was put into wells of D-Lysine coat 96-well plate (BD bioscience) in such a volume that the cell count is 7.0×10^4 cells/well, and the cells were cultured overnight.
After the culture, all the medium of the 96 wells were discarded. 200 μl of the staining solution for measurement of intracellular calcium ion′ Calcium Assay Kit Express (Molecular Device), diluted 80 times with an assay buffer (20 mM HEPES, 146 mM NaCl, 1 mM MgSO4, 1.39 mM glucose, 1 mM CaC12, 2.5 mM Probenecid, 0.05% bovine serum albumin) was added to each well, and the plate was left standing at 37° C. for 30 minutes and at room temperature for 45 minutes to perform staining. After the staining, 50 μl of a solution of stimulant (sweet taste substance) prepared with the assay buffer was added to each well, and the fluorescence value was measured for 120 seconds after the stimulation by using FDSSμEELL (Hamamatsu Photonics). By measuring the fluorescence value (Ex. 480 nm, Em. 540 nm) before and after the stimulation, the change of the intracellular free calcium ion concentration caused by addition of the stimulant via a sweet taste receptor was quantitatively investigated. The measurement and analysis of the fluorescence value was performed by using the software attached to FDSSμEELL (FDSS7000EX), and ΔF/F value was calculated in accordance with the following equation, and used for the evaluation. ΔF/F=(Maximum fluorescence value after stimulation−Minimum fluorescence value after stimulation)/(Fluorescence value before stimulation)
Furthermore, by using the ΔF/F values obtained when each sweet taste substance was added, the S/N ratio was calculated. Specifically, the S/N value was calculated by using the minimum value of ΔF/F obtained when each substance was added at various concentrations as noise (N) value, and the similarly obtained maximum value of ΔF/F as the signal (S) value, and used as an index for sensitivity of the measurement of the activity of each receptor. That is, a higher S/N value means a higher sensitivity for detection of an interaction of a sweet taste receptor and a test substance, which makes it easier to detect stimulation with a sweet taste substance or sweet taste-regulating substance of a lower concentration.
The sweet taste substances used as the stimulating substance are acesulfame potassium (Tokyo Kasei Kogyo), sodium saccharin (WAKO), sucralose (SIGMA), sucrose (WAKO), and neotame (SIGMA), as well as aspartame, advantame, and SC-45647 ([3-[(S)-1-phenylethyl]-2-(4-cyanophenyl)guanidino]acetic acid, which were all synthesized in-house.

SMILES	S/N
OC[C@H]1O[C@H](O[C@]2(CCl)O[C@H](CCl)[C@@H](O)[C@@H]2O)[C@H](O)[C@@H](O)[C@H]1Cl [Sucralose, sucralose]	4.8
CC1=CC(=O)NS(=O)(=O)O1 [Acesulfame K, acesulfame potassium]	3.2
COC(=O)[C@H](Cc1ccccc1)NC(=O)[C@H](CC(=O)O)NCCCc1ccc(OC)c(O)c1 [Advantame, advantame]	9.9
OC[C@H]1O[C@@](CO)(O[C@H]2O[C@H](CO)[C@@H](O)[C@H](O)[C@H]2O)[C@@H](O)[C@@H]1O [Sucrose, sucrose]	3.4
COc1ccc(CCC(=O)c2c(O)cc(O[C@@H]3O[C@H](CO)[C@@H](O)[C@H](O)[C@H]3O[C@@H]3O[C@@H](C)[C@H](O)[C@@H](O)[C@H]3O)cc2O)cc1O [NHDC, neohesperidin dihydrochalcone]	3.9
COC(=O)[C@H](Cc1ccccc1)NC(=O)[C@H](CC(=O)O)NCCC(C)(C)C [Neotame, neotame]	8.4
C[C@H](NC(=Nc1ccc(C#N)cc1)NCC(=O)O)c1ccccc1 [SC-45647, [3-[(S)-1-phenylethyl]-2-(4-cyanophenyl)guanidino]acetic acid]	6.1
O=C1NS(=O)(=O)c2ccccc21.[Na] [Saccharin Na, sodium saccharin]	4.5
COC(=O)[C@H](Cc1ccccc1)NC(=O)[C@@H](N)CC(=O)O [Aspartame, aspartame] (HELM PEPTIDE1{D.F.[CO[*:1]]}$$$$V2.0)	6.3
